Experimental data from patent US7410767B1, “HLA-E binding” (Isis Innovation Limited, priority 1997, dated 2008).
Where two headings read alike, the source gives them in different places. No end group written: not given here.

Target: HLA-E (Homo sapiens, UniProt P13747, G128R)
Assay: in vitro peptide binding assay to HLA-E
Text: Whatever form of HLA-E is used, a suitable peptide for binding in the HLA-E peptide groove will be required. […] Other peptides which bind to HLA-E may be used, for example peptides from viral proteins which may be the same as or different to MHC class I leader sequence peptides. […] A suitable assay for identifying synthetic peptides which bind to HLA-E is described in Braud et al 1997 Eur. J. Immunol. 27:1164-1169.

[1] = in vitro peptide binding assay, ratio of optical densities, read-out: Concentration of peptide required to obtain 50% of binding to HLA-E

Work on `CSCC[C@H](NC(=O)[C@@H](N)C(C)C)C(=O)N[C@@H](C)C(=O)N1CCC[C@H]1C(=O)N[C@@H](CCCNC(=N)N)C(=O)N[C@H](C(=O)N[C@@H](CC(C)C)C(=O)N[C@@H](CC(C)C)C(=O)N[C@@H](CC(C)C)C(=O)O)[C@@H](C)O` yielded an EC50 of 300 nM.
`CSCC[C@H](NC(=O)[C@@H](N)C(C)C)C(=O)N[C@@H](C)C(=O)N1CCC[C@H]1C(=O)N[C@@H](CCCNC(=N)N)C(=O)N[C@H](C(=O)N[C@@H](CC(C)C)C(=O)N[C@H](C(=O)N[C@@H](CC(C)C)C(=O)O)C(C)C)[C@@H](C)O` gave an EC50 [1] of 60 nM.
Molecule `CSCC[C@H](NC(=O)[C@@H](N)C(C)C)C(=O)N[C@@H](C)C(=O)N1CCC[C@H]1C(=O)N[C@@H](CCCNC(=N)N)C(=O)N[C@H](C(=O)N[C@H](C(=O)N[C@@H](CC(C)C)C(=O)N[C@@H](CC(C)C)C(=O)O)C(C)C)[C@@H](C)O` has an EC50 [1] of 60 nM.
Molecule `CC(C)C[C@H](NC(=O)[C@H](CC(C)C)NC(=O)[C@@H](NC(=O)[C@@H](NC(=O)[C@H](CCCNC(=N)N)NC(=O)[C@@H]1CCCN1C(=O)[C@H](C)NC(=O)[C@@H](NC(=O)[C@@H](N)C(C)C)[C@@H](C)O)[C@@H](C)O)C(C)C)C(=O)O` has an EC50 [1] greater than 100000 nM.
VTAPRTLLL was tested, and the EC50 [1] was greater than 100000 nM.
